Reference: patent US5180672A, “Ascorbate oxidase isolated from Acremonium sp. HI-25 ferm BP-3124” (Asahi Kasei Kogyo Kabushiki Kaisha, priority 1990, dated 1993)
Where two headings read alike, the source gives them in different places.

How the values were obtained:
[1] = molecular target: T1, ascorbate oxidase from cucumber (Toyobo ASCORBATE OXIDASE, EC 1.10.3.3) (Cucumis sativus, UniProt P14133); conditions: reference J. Biochem. 64, 189 (1968); Toyobo catalog; read-out: K m (L-ascorbate); cited from earlier work
T1 sequence (P14133 34-587): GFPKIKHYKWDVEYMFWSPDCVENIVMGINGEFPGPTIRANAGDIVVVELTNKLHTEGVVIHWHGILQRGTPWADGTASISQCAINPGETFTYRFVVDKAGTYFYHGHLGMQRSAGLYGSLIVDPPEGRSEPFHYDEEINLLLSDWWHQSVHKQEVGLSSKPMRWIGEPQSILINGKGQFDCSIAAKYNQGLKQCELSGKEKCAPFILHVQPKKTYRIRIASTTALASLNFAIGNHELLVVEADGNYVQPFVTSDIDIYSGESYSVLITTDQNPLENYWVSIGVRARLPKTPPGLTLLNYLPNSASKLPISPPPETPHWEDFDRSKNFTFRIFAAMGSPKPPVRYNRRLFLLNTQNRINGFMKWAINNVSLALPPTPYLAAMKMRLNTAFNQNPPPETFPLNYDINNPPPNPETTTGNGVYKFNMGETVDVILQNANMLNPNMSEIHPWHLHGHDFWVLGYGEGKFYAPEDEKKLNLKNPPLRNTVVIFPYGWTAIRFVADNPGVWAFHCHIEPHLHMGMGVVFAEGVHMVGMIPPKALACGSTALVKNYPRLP

[2] = test system: ascorbate oxidase produced by Acremonium sp. HI-25; format: biochemical; conditions: for residual relative activities (%): 10 min, 1000 µM
[3] = test system: ascorbate oxidase from Myrothecium verrucaria, hypha; conditions: at 1 mM; printed as effective (50% at 1 mM); cited from earlier work
[4] = test system: ascorbate oxidase from Acremonium sp. HI-25; conditions: NaN3 0.2%, 2880 min

**Q.** For O=C1O[C@H]([C@@H](O)CO)C(O)=C1O [L-ascorbate], which Km [1] is on record?
**A.** 250 µM

**Q.** Which results are given for CCN(CC)C(=S)[S-].[Na+] [sodium N,N-diethyldithiocarbamate]?
**A.** residual relative activities (%) [2]: 101%; inhibition by inhibitor [3]: 50%

**Q.** With [Na+].[Na+].[S-2] [Na2 S, sodium sulfide] as the compound, how does the “residual relative activities (%)” value [2] read?
**A.** 3%

**Q.** With [N-]=[N+]=[N-] [sodium azide] as the compound, how does the “relative activities, 100 as buffers only” value ([4]; PIPES buffer with 0.1 % BSA) read?
**A.** 78.4%

**Q.** What about the “relative activities, 100 as buffers only” value ([4]; Pi buffer with 0.1 % BSA) of the same compound?
**A.** 76.2%

**Q.** What about the “relative activities, 100 as buffers only” value ([4]; Tris buffer with 0.1 % BSA) of the same compound?
**A.** 78.6%

**Q.** What about the “inactivation by inhibitor (in words)” value [2] of the same compound?
**A.** inactivated

**Q.** With O=C(O)CN(CCN(CC(=O)O)CC(=O)O)CC(=O)O [EDTA] as the compound, how does the “residual relative activities (%)” value [2] read?
**A.** 106%
